{"source": "paper PMC11355573", "about": "“A New Renieramycin T Right-Half Analog as a Small Molecule Degrader of STAT3” (Marine Drugs, 2024)", "type_in_all_cases": "cell-based, human", "key": {"H460 cells": {"tested_on": "H460 cells", "assay": "Wound healing assay (migration)", "details": "H460, 1 and 2.5 μM, at 48 h and 72 h, vs untreated cells", "description": "Wound healing assay was conducted to assess the effects of DH_31 on migration. H292 and H460 cells (4.0–4.2 × 10^4 cells per well) were seeded in 96-well plates. Following overnight incubation, wounds were created by scraping the monolayer cells with a 10 μL pipette tip, and non-adherent cells were washed off with PBS. The cells were treated with different concentrations of DH_31 (0–2.5 μM) in the growth medium containing 1% FBS for 72 h at 37 °C. […] The scratched area was analyzed by using ImageJ™ software (Image J 1.52a, Rasband, W., National Institutes of Health, Bethesda, MD, USA). Cell migration was determined by the rate of cells moving towards the scratched area."}, "[1]": {"tested_on": "NSCLC cells (H292 and H460)", "assay": "Hoechst 33342/PI staining, percentage of dead cells in NSCLC", "details": "10 μM, 24 h", "description": "Apoptosis is a crucial mechanism of cell death induced by anticancer drugs. We further analyzed the apoptosis induction effect of the potent small molecules, namely DH_28, DH_30, and DH_31. Nuclear morphology detected by the staining with nucleus-specific fluorescence dye Hoechst 33342 and cell-impermeable PI for necrotic detection was performed. Morphologic changes by means of condensed and/or fragmented nuclei were observed after 24 h of treatment (Figure 2D). […] Therefore, DH_31 was selected for further experiments.\nFigure 2 The effect of RT right-half analogs on cytotoxicity in NSCLC and human normal lung epithelial (BEAS-2B) cell lines and apoptotic cell death in NSCLC cells. (A) NSCLC H292 and H460 cells were treated with derivatives of RT right-half analogs for 24 h and analyzed using MTT assay to assess cytotoxicity. (B) IC50 values for H292 and H460 cell lines were calculated. (C) BEAS-2B cells were treated with DH_28, DH_30, DH_31, and TM-(−)-18 for 24 h. The cytotoxic effects were evaluated using an MTT assay, and the IC50 values for BEAS-2B cells were determined. (D) H292 and H460 cells were seeded and treated with 0–10 μM of DH_28, DH_30, and DH_31 for 24 h. Hoechst 33342 and PI were used to stain the cell nuclei. Images were obtained under a fluorescence microscope. (E) The percentages of cell death were calculated based on the stained images in H292 and H460 cells. […]"}, "[2]": {"tested_on": "ZO1, Slug, Snail, N-cadherin, Vimentin mRNA in H460 cells", "assay": "mRNA of EMT markers by Real-time qPCR", "details": "H460, 1 μM and 2.5 µM", "description": "Therefore, the effect of DH_31 on targeting, the DNA-binding domain of STAT3, may represent an impact on downstream targets at the transcriptional level (Figure 8A). The expression levels of ZO1, Slug, Snail, N-cadherin, and Vimentin were analyzed using Real-time qPCR.\nQuantitative Real-time PCR was performed to determine the effect of DH_31 on mRNA levels of STAT3 and EMT-related genes. H460 cells (4.0 × 10^5 cells per well) were seeded in 6-well plates. Following overnight incubation, the cells were treated with different concentrations of DH_31 (0–2.5 μM)) for 8 h at 37 °C. After treatment, total RNA was isolated using the RNeasy kit (Qiagen, Germany) and subsequently subjected to cDNA synthesis using qScript cDNA Supermix (Quanta bio, Beverly, MA, USA), following the manufacturers’ protocols. Real-time qPCR was performed using Luna Universal qPCR Master Mix (NEB, Ipswich, MA, USA) and the CFX 96 Real-time PCR system (Bio-Rad, Hercules, CA, USA). The expression of each cDNA was normalized to that of β-actin, and the comparative Ct method was used to obtain relative expression levels. The primers used for Real-time PCR are shown in the in the Supporting Information, Table S1. The list of primers."}}, "data": [{"smiles": "COc1c(C)cc2c(c1O)[C@@H]1CN(Cc3ccc4ccccc4c3)[C@@H](C#N)[C@H](C2)N1C", "note": "[DH_31, (1R,4R,5S)-10-hydroxy-9-methoxy-8,11-dimethyl-3-(naphthalen-2-ylmethyl)-1,2,3,4,5,6-hexahydro-1,5-epiminobenzo[d]azocine-4-carbonitrile]", "values": [{"measurement": "cell migration across the wound space", "setting": "H460 cells", "result": "significantly decreased"}, {"measurement": "dead cells in NSCLC", "setting": "[1]", "result": "34–66%"}, {"measurement": "ZO1 mRNA expression", "setting": "[2]; 8 h (p < 0.01)", "result": "significant increase"}, {"measurement": "N-cadherin mRNA expression", "setting": "[2]; 8 h (p < 0.05)", "result": "significant reduction"}, {"measurement": "Slug mRNA expression", "setting": "[2]; 8 h (p < 0.05)", "result": "significant reduction"}, {"measurement": "Snail mRNA expression", "setting": "[2]; 8 h (p < 0.05)", "result": "significant reduction"}, {"measurement": "Vimentin mRNA expression", "setting": "[2]; 8 h (p < 0.05)", "result": "significant reduction"}]}]}
